Results: patent publication US5654273A, “Synducin mediated modulation of tissue repair” (Children's Medical Center Corporation, priority 1994, dated 1997)
Where no end group is shown, it is not given here.

Experiments:
Type in all cases: cell-based
cell surface syndecan-1 = experiment: ELISA for cell surface syndecan-1 on NIH 3T3 cells; details: for increase of cell surface syndecan-1: confluent NIH 3T3 cells, after 48 hr culture
Procedure: An in vitro cell culture system was used to explore the mechanism by which cell surface syndecans is induced. NIH 3T3 cells grown to confluence in serum-containing medium were exposed to potential inducers and then evaluated by ELISA for the amount of cell surface syndecan-1.
Syndecan-1 at the cell surface was determined on cells cultured in 96 well tissue culture plates by washing the cells once in Tris buffered saline (TBS) (10 mM Tris, 150 mM NaCl, pH 7.4), fixing 30 min in 2% HEPES-buffered paraformaldehyde, pH 7.4, rinsing three times in TBS and incubating the cells for 30 min in TBS, 0.1% BSA, 5% goat serum. Cells were incubated for 1 hr at room temperature with 5 μg/ml mAb 281-2 (specific for extracellular domain of syndecan-1 core protein) (M. Jalkanen, H. Nguyen, A. C. Rapraeger, N. Kurn, M. Bernfield, J. Cell Biol., 101:976 (1985)) or non-specific rat IgG2A (Zymed, San Francisco, Calif.). Cells were then rinsed 3×5 min with TBS, incubated with alkaline phosphatase conjugated goat anti-rat antibody (Caltag, San Francisco, Calif.) for 30 min, rinsed 3×5 min with TBS, and alkaline phosphatase activity determined by measuring the absorbance at 405 nm of a 1 mg/ml solution of p-nitrophenolphosphate (Sigma, St. Louis, Mo.) in 10 mM Tris, 100 mM NaCl, 5 mM MgCl pH 9.5. Linear rates of absorbance change over time were determined by an automated microplate reader (Molecular Devices, Menlo Park, Calif.). Cells were then rinsed 3× with TBS and cellular protein determined by solubilizing cells in individual wells with 20 μl of 0.1N NaOH followed by protein determination (BCA protein assay, Pierce, Rockford, Ill.).
These measurements correlated strongly over the range of syndecan-1 detected in this study (r=0.96), confirming that the ELISA assay provides a quantitative assessment of cell surface syndecan-1. […]

NIH 3T3 cells = experiment: Cell number, cell protein and morphology of treated NIH 3T3 cells
NIH-3T3 cells [1] = experiment: Uptake and binding of iodinated PR-39
Procedure: FIG. 4 is a graph showing uptake of PR-39 by NIH-3T3 cells.
PR-39 was iodinated using the Iodogen procedure (Pierce T). The influx and efflux kinetics were calculated, accessable compartments were evaluated, and total uptake measured in NIH-3T3 cells.

NIH-3T3 cells [2] = experiment: Cell permeability after PR-39 treatment (propium iodide); details: for fluorescent cells per 20× field: confluent NIH-3T3, 60 minutes at 37° C., 50 μg/ml propium iodide
Procedure: Cell permeability after PR-39 treatment was then measured. NIH-3T3 cells were cultured to confluence on chamber slides. 0, 0.1, 0.5, 1, and 10 μM PR-39 was added to the culture medium and incubated 60 minutes at 37° C.; then 50 μg/ml propium iodide (FW 688) was added.

NIH-3T3 cells [3] = experiment: Effect on cell morphology (f-actin, rhodamine phalloidin); details: 2 μM, 72 hr, confluent NIH-3T3
Procedure: To determine the effect on cell morphology, NIH-3T3 cells were cultured to confluence on coverslips in 24 well plates. 2 μM PR-39 was added the medium and cultured for 72 hr. 2% PFA and acetone were used to fix cells and cells were stained with f-actin with rhodamine phalloidin.

In the case of FGF-2, the “increase of cell surface syndecan-1” value (cell surface syndecan-1) is reported as “approximately three to four-fold” and the “increase of cell number” value (NIH 3T3 cells) is reported as “about two-fold”.
With PDGF-AB the “increase of cell surface syndecan-1” value (cell surface syndecan-1) was “approximately three to four-fold” and the “increase of cell number” value (NIH 3T3 cells) was “about two-fold”.
In the case of “RRRPRPPYLPRPRPPPFFPPRLPPRIPPGFPPRFPPRFP [PR-39]”, the “induction of cell surface syndecan-1 by PR-39” value (cell surface syndecan-1; NIH-3T3 cells, 43 hours) is reported as “concentration dependent manner”, the uptake into cells (NIH-3T3 cells [1]; iodinated PR-39, NIH-3T3 cells) is reported as “rapidly associates with and enters NIH-3T3 cells” and the saturation of uptake (NIH-3T3 cells [1]; radioactive PR-39, NIH-3T3 cells) is reported as “reaches a saturation point”. The membrane permeability change (NIH-3T3 cells [2]; 0.1, 0.5, 1 and 10 μM, 60 minutes at 37° C.) was “no large perability changes”, the “fluorescent cells per 20× field” value (NIH-3T3 cells [2]) was 2 /20× field and the “change in cell morphology” value (NIH-3T3 cells [3]) was “No change in cell morphology”.
In the case of Triton™, the “fluorescent cells, percent” value (NIH-3T3 cells [2]; confluent NIH-3T3, 50 μg/ml propium iodide) is reported as 100% and the “fluorescent cells per 20× field” value (NIH-3T3 cells [2]) is reported as “approximately 50 /20× field”.
